{
  "source": "paper PMC10298530",
  "about": "“Synthesis and Anticancer Activity of A-Ring-Modified Derivatives of Dihydrobetulin” (International Journal of Molecular Sciences, 2023)",
  "key": {"[1]": {"tested_on": "HBL-100/Dox cells", "assay": "Combined action of compounds, MTT assay on HBL-100/Dox cells", "assay_type": "cell-based, human", "text": "The results were expressed pictorially using Prism 6.0 (GraphPad Software, Boston, MA, USA)."}, "[2]": {"tested_on": "HBL-100/Dox cells", "assay": "Western blotting of cytochrome c, cleaved caspase-9 and -8, HBL-100/Dox", "assay_type": "cell-based, human", "details": "16 h, IC50", "protocol": "(§1) The supernatant (cytosol fraction) and mitochondrial pellets were then collected, and protein concentration was determined by UV […] using 1–100 μg/mL BSA as standard curve concentrations (UV-2600i spectrophotometer; Shimadzu, Tokyo, Japan).\n(§2) Then, the same protein amounts (20.0 µg in each lane) were loaded and separated by 4–20% Mini-PROTEAN TGX Stain-Free Protein Gels (Bio-Rad Laboratories, Hercules, CA, USA), followed by transferring onto polyvinylidene difluoride (PVDF) membranes. The membranes were blocked with 1% (w/v) casein in Tris-buffered saline containing 0.1% Tween-20 (TBS-T), and were incubated overnight with primary antibodies (1:1000) of Cytochrome c (D18C7) Rabbit mAb, Cleaved Caspase-9 (Asp330) (E5Z7N) Rabbit mAb, Cleaved Caspase-8 (Asp374) (18C8) Rabbit mAb, and β-Actin (D6A8) Rabbit mAb (Cell Signaling Technology, Danvers, MA, USA) for cytosol and mitohondrial fractions at 4 °C. The next day, the PVDF membranes were washed thrice in TBS-T and incubated with HRP-conjugated secondary antibodies (1:1000) (Cell Signaling Technology, Danvers, MA, USA) for 1 h at RT. Immunoreactive proteins were detected by Clarity Western ECL Substrate (Bio-Rad Laboratories, Hercules, CA, USA) and then analyzed on the ChemiDoc MP Imaging system (Bio-Rad Laboratories, Hercules, CA, USA). The proteins were quantified by densitometry using Image Lab software (version 6.0; Bio-Rad Laboratories, Hercules, CA, USA). To normalize protein expression data, a blot with β-Actin was used."}, "[3]": {"tested_on": "RD TE32", "assay": "MTT cell viability assay, RD TE32", "assay_type": "cell-based, human", "details": "for IC50: Homo sapiens", "text": "Blokhin National Medical Research Center of Oncology (the Ministry of Health of the Russian Federation, Moscow)."}, "[4]": {"tested_on": "human cancer cell lines", "assay": "MTT assay, panel of cancer cell lines", "details": "for IC50: Homo sapiens", "description": "In this study, the human embryonic kidney cell line HEK293 was used as the non-cancerous cell line.\nTo investigate the cytotoxic activity of the compounds under study, the MTT colorimetric assay [45] was performed. […] After 72 h, 20 μL of 5 mg/mL solution of MTT (PanEco, Moscow, Russia), in sterile phosphate-buffered saline (PBS; PanEco, Moscow, Russia), was added to each well and further incubated for 4 h. Then, the medium with the compounds was removed, and the formed formazan crystals were dissolved in 100 μL of DMSO. […] The IC50 values were determined from dose-dependent curves, using Prism 6.0 (GraphPad Software, Boston, MA, USA)."}, "[5]": {"tested_on": "HBL-100 cells", "assay": "Hoechst 33342 / TMRE fluorescent microscopy, HBL-100", "assay_type": "cell-based, human", "protocol": "(§3) The DNA marker, termed Hoechst 33342 Ready Flow Reagent, was used as a stock solution (Invitrogen, ThermoFisher Scientific, USA). The mitochondrial marker, LumiTracker Mito TMRE (tetramethylrhodamine, ethyl ester; Lumiprobe, Moscow, Russia), was dissolved in DMSO as 1.0 mM stock solution. The marker of reactive oxygen species, H2DCFDA (Lumiprobe, Moscow, Russia), was dissolved in DMSO as 100.0 μM stock solution. After incubation, the cells were incubated with FBS-free culture medium containing the dye mixture of Hoechst 33342 (final concentration 1.0 μM) and LumiTracker Mito TMRE (final concentration 1.0 μM), or H2DCFDA dye taken alone (final concentration 1.0 μM), for 30 min at 37 °C in darkness. Fluorescence, at 420 nm (Hoechst 33342), at 510 nm (TMRE), and at 575 nm (H2DCFDA), of the test cultures (including controls) was analyzed immediately using a fluorescence microscope CKX 53 (Olympus, Tokyo, Japan). The TMRE fluorescence intensity was quantified using Fiji (ImageJ)."}, "[6]": {"tested_on": "HBL-100/Dox", "assay": "MTT cell viability assay, HBL-100/Dox", "assay_type": "cell-based, human", "protocol": "(§4) The cells were cultured in a humidified CO2 incubator (model 460-CE; Thermo Fisher Scientific, Waltham, MA, USA) at +37 °C and 5% CO2.\n(§5) The percentage of the viable cells was calculated according to the following equation: cell viability (%) = 100 × (mean absorbance in the treatment group/mean absorbance in the control group). The results were expressed pictorially using Prism 6.0 (GraphPad Software, Boston, MA, USA)."}, "[7]": {"tested_on": "HBL-100", "assay": "MTT cell viability assay, HBL-100", "assay_type": "cell-based, human", "details": "for IC50: Homo sapiens", "protocol": "as §4, §5"}, "[8]": {"tested_on": "Active Caspase-3 in HBL-100 cells", "assay": "Flow cytometric analysis of active caspase-3, HBL-100", "assay_type": "cell-based, human", "details": "24 h", "protocol": "The cells were detached with accutase (HiMedia Laboratories, Maharashtra, India) and then fixed with 70% ice cold ethanol followed by overnight incubation at 4 °C. The cells were washed twice with PBS, permeabilized using 0.1% Triton X-100 in PBS solution, and subsequently stained with 5 μL of the BD Horizon™ BV605 Rabbit Anti-Active Caspase-3 antibody (BD Biosciences, Franklin Lakes, NJ, USA). The cells were then washed, resuspended in PBS, and analyzed using a CytoFlex S flow cytometer (Beckman Coulter, Brea, CA, USA). Cell fluorescence was evaluated on a CytoFlex S flow cytometer (Beckman Coulter, Brea, CA, USA). The results were analyzed using FlowJo software (ver. X 10.0.7r2, FlowJo Software, San Jose, CA, USA) and represented as geometric mean fluorescence intensity (gMFI)."}, "[9]": {"tested_on": "HBL-100/Dox cells", "assay": "Hoechst 33342 / TMRE fluorescent microscopy, HBL-100/Dox", "assay_type": "cell-based, human", "protocol": "as §3"}, "[10]": {"tested_on": "HBL-100 cells", "assay": "Western blotting of cytochrome c, cleaved caspase-9 and -8, HBL-100", "assay_type": "cell-based, human", "details": "16 h, IC50", "protocol": "as §1, §2"}},
  "note": "Where two headings read alike, the source gives them in different places.",
  "data": [
    {"smiles": "COC(=O)[C@]12CC[C@@H](C(C)C)[C@@H]1[C@H]1CC[C@@H]3[C@@](C)(CCC#N)[C@H](C(=O)C(Br)Br)CC[C@@]3(C)[C@]1(C)CC2", "note": "[compound 31, 2-Cyano-24,24-dibromo-4-oxo-3,4-seco-3,23-dinorlupan-28-oic acid methyl ester]", "values": [
      {"measurement": "number of living cells, compound vs its combination with verapamil", "setting": "[1]; 72 h, 30 μM verapamil", "result": "remained unchanged"},
      {"measurement": "potentiation in the effectiveness of Dox", "setting": "[1]; MK 0.6 μM combined with Dox", "result": "no potentiation"},
      {"measurement": "activation of caspase-8", "setting": "[2]", "result": "not observed"},
      {"measurement": "activation of caspase-9", "setting": "[2]", "result": "sequential activation of initiator caspase-9"},
      {"measurement": "cytochrome c release", "setting": "[2]", "result": "provoked the release of cytochrome c from mitochondria to cytosol"},
      {"measurement": "IC50", "setting": "[3]; RD TE32, MTT, 72 h of treatment, read-out: IC50 Values (Mean ± SD)", "result": "700 ± 100", "unit": "nM"},
      {"measurement": "IC50", "setting": "[3]; Table S1, RD TE32, read-out: IC50 (mean ± SD)", "result": "660 ± 40", "unit": "nM"},
      {"measurement": "Selectivity index (SI)", "setting": "[3]; ratio of IC50 values healthy (HEK293) / RD TE32", "result": 16.43},
      {"measurement": "IC50", "setting": "[4]; read-out: IC50 values (range)", "result": "700 to 7100", "unit": "nM"},
      {"measurement": "IC50", "setting": "[4]; read-out: cytotoxicity (IC50 range)", "result": "700 to 16600", "unit": "nM"},
      {"measurement": "cytotoxicity in the screening studies", "setting": "[4]; MTT screening, Table S1", "result": "pronounced cytotoxic effect"},
      {"measurement": "SI (range)", "setting": "[4]; against HBL-100/Dox, HBL-100, and RD TE32 cells", "result": "6.39–16.43"},
      {"measurement": "mitochondrial membrane potential (MMP), TMRE fluorescence intensity", "setting": "[5]; 16 h, vs untreated control", "result": "significant (p < 0.05) reduction in MMP"},
      {"measurement": "number of cells with nuclear morphology changes", "setting": "[5]; Hoechst 33342, 16 h, IC50 values (MK 1.0 µM)", "result": 21.2, "unit": "%"},
      {"measurement": "death of the cells", "setting": "[6]; HBL-100/Dox, MK at IC50 dose, after 72 h exposure", "result": 50, "unit": "%"},
      {"measurement": "IC50", "setting": "[6]; Homo sapiens, HBL-100, 72 h, read-out: IC50 Values (Mean ± SD)", "result": "1800 ± 100", "unit": "nM"},
      {"measurement": "Selectivity index (SI)", "setting": "[6]; ratio of IC50 values healthy (HEK293) / HBL-100/Dox", "result": 6.39},
      {"measurement": "death of the cells", "setting": "[7]; HBL-100, MK at IC50 dose, after 72 h exposure", "result": 50, "unit": "%"},
      {"measurement": "IC50", "setting": "[7]; HBL-100, MTT, 72 h of treatment, read-out: IC50 Values (Mean ± SD)", "result": "1000 ± 100", "unit": "nM"},
      {"measurement": "IC50", "setting": "[7]; Table S1, HBL-100, read-out: IC50 (mean ± SD)", "result": "990 ± 1", "unit": "nM"},
      {"measurement": "Selectivity index (SI)", "setting": "[7]; ratio of IC50 values healthy (HEK293) / HBL-100", "result": 11.50},
      {"measurement": "gMIF, Active Caspase-3", "setting": "[8]; dose 2×IC50", "result": "11048±278"},
      {"measurement": "gMIF, Active Caspase-3", "setting": "[8]; dose IC50", "result": "6755±301"},
      {"measurement": "mitochondrial membrane potential (MMP), TMRE fluorescence intensity", "setting": "[9]; 16 h, vs untreated control", "result": "significant (p < 0.05) reduction in MMP"},
      {"measurement": "number of cells with nuclear morphology changes", "setting": "[9]; Hoechst 33342, 16 h, IC50 values (MK 1.8 µM)", "result": 33.1, "unit": "%"},
      {"measurement": "activation of caspase-8", "setting": "[10]", "result": "not observed"},
      {"measurement": "activation of caspase-9", "setting": "[10]", "result": "sequential activation of initiator caspase-9"},
      {"measurement": "cytochrome c release", "setting": "[10]", "result": "provoked the release of cytochrome c from mitochondria to cytosol"}
    ]}
  ]
}
